Where only a bound is given, the exact number is not on record here.

For data set [1] the following is noted: after intravenous infusion; cited from earlier work.
The nature of data set [2]: Iron chelation activity (FeSO4/ferrozine, absorbance at 562 nm). The class given is biochemical. Conditions: 100, 200 and 400 mM pure triethyl orthoacetate (Fig. 7).
Experimental: Negative controls and methanolicmicroalgae extracts (400 µl) were pipetted into 24 well plate, then 100 µl of 0.25mM FeSO4 solution (dissolved in methanol) was added. For the reaction initiation, 100 µl 5mM ferrozine dissolved in methanol was added. Solution was homogenized by pipetting and incubated for 10 minutes at room temperature. After incubation, it was analysed by using spectrophotometric measurement at 562nm wavelength. In vitro experiments with pure triethyl orthoacetate compound was also conducted with the concentrations of 100, 200 and 400 mM respectively. Same experimental protocol was used for pure triethyl orthoacetate as described in detail above for Spirulina platensis extract.

Take `CC(=O)N(O)CCCCCNC(=O)CCC(=O)N(O)CCCCCNC(=O)CCC(=O)N(O)CCCCCN` [deferoxamine]: the vascular half-life in data set [1] is 5 to 10 min.
On to `CCOC(C)(OCC)OCC` [triethyl orthoacetate, Triethyl orthoacetate], for which the “in vitro iron chelating activity” value in data set [2] is over 70%.

These data come from patent EP3295938B1, “USE OF TRIETHYL ORTHOACETATE IN THE TREATMENT OF METAL OVERLOAD DISEASES” (ÜSKÜDAR ÜNIVERSITESI, priority 2016, dated 2018).
